The structures appear in SMILES notation.

The test system of this assay is HIV. As to the kind of experiment: HOS assay (HOS-Luc HIV-1 LTR-luciferase reporter antiviral assay). Type of assay: cell-based. Conditions: Human immunodeficiency virus 1, 96 h; HOS-Luc cells (HOS-CD4.CCR5 with HIV-1 LTR-luciferase reporter), four-day incubation with virus, luciferase readout. On the procedure:
HOS-Luc cells were created by introducing an HIV-1 LTR-luciferase reporter into HOS-CD4.CCR5 (NIH AIDS Research and Reference Reagents Program, cat. #3318). The cells were propagated in DMEM complete medium. Cells were split 1:20 by standard trypsinization when confluency reached 80% (roughly every 2 to 3 days).
Black-walled 96-well tissue culture plates were seeded with HOS-Luc at 6×10^3 cells per well in 50 μL DMEM containing 2% FBS and placed in a humidified incubator at 37° C., 5% CO2 overnight. The following day, test compounds were serially diluted in 4-fold increments at 2× the final concentration in DMEM+2% FBS+0.2% DMSO. Diluted compound (50 μL) was transferred to the HOS-Luc cells and the plates were placed in a humidified incubator at 37° C., 5% CO2 for 1 hr. An additional 60 μL of 2× compound was transferred to a clear-walled 96-well tissue culture plate and 60 μL of virus (diluted 1:50 in tissue culture media) was added to each well and thoroughly mixed. The virus input was previously determined by titrating the virus under assay conditions without compound and selecting a dilution that gives a response in the linear range of the curve and a signal to background of at least 30. The HIV/compound mixture (100 μL) was transferred to the black-walled plates containing 100 μL of cells/compound. The plates were placed in a humidified incubator at 37° C., 5% CO2 for four days. Following the four-day incubation, 150 μL of supernatant was removed and 50 μL of reconstituted Luclite (Promega) was added to each well. For cytotoxicity assessment, 50 μL of reconstituted CellTiter-GLo (Promega) was added to each well. Each plate was topsealed and read in a Topcount (Packard) luminometer at 1 s/well.
Raw data from the HOS-Luc assay were expressed as Relative Light Units (RLU) and normalized according to the following formula: (RLU at drug [ ]/RLU no drug)*100=% control
The potency of test compounds are reported as IC50 values derived from the four parameter Hill equation, defined as: y=Vmax*(1−(x^n/(K^n+x^n)))+Y2 Where:
y=normalized response data
Vmax=upper bound of response
Y2=lower bound or baseline of response
For orientation: In a reporter assay the amount or activity of a reporter protein is the signal.
For the compound `Cc1nc2ccccc2n1[C@H]1C[C@H]2CC[C@@H](C1)N2CCC(CNS(=O)(=O)c1ccccc1)c1ccccc1` (stereo partly drawn) [Example 1, N-{4-[(1R,5S)-3-(2-methyl-1H-benzimidazol-1-yl)-8-azabicyclo[3.2.1]oct-8-yl]-2-phenylbutyl}], the half-maximal inhibitory concentration (IC50) (as a rule, the point on the concentration scale where inhibition reaches its midpoint) lay in the range of 10 to 100 nM.

On to `Cc1nc2ccccc2n1[C@H]1C[C@H]2CC[C@@H](C1)N2CCC(CN(C)S(=O)(=O)c1ccccc1)c1ccccc1` (stereo partly drawn) [Example 2, N-methyl-N-{4-[(1R,5S)-3-(2-methyl-1H-benzimidazol-1-yl)-8-azabicyclo[3.2.1]oct-8-yl]-2-phenylbutyl}benzenesulfonamide], for which the IC50 was less than 10 nM.

`Cc1nc2ccccc2n1[C@H]1C[C@H]2CC[C@@H](C1)N2CCC(CNS(=O)(=O)c1cccc(C#N)c1)c1ccccc1` (stereo partly drawn) [Example 3, 3-cyano-N-{4-[(1R,5S)-3-(2-methyl-1H-benzimidazol-1-yl)-8-azabicyclo[3.2.1]oct-8-yl]-2-phenylbutyl}benzenesulfonamide] had an IC50 of 10 to 100 nM.

Compound `Cc1nc2ccccc2n1[C@H]1C[C@H]2CC[C@@H](C1)N2CCC(CNS(=O)(=O)c1ccc(C#N)cc1)c1ccccc1` (stereo partly drawn) [Example 4, 4-cyano-N-{4-[(1R,5S)-3-(2-methyl-1H-benzimidazol-1-yl)-8-azabicyclo[3.2.1]oct-8-yl]-2-phenylbutyl}benzenesulfonamide] gave a concentration for half-maximal inhibition (IC50) of 10 to 100 nM.

With `Cc1nc2ccccc2n1[C@H]1C[C@H]2CC[C@@H](C1)N2CCC(CNS(C)(=O)=O)c1ccccc1` (stereo partly drawn) [Example 5, N-{4-[(1R,5S)-3-(2-methyl-1H-benzimidazol-1-yl)-8-azabicyclo[3.2.1]oct-8-yl]-2-phenylbutyl}methanesulfonamide], the IC50 is 10 to 100 nM.

Compound `Cc1nc2ccccc2n1[C@H]1C[C@H]2CC[C@@H](C1)N2CCC(CNS(=O)(=O)c1cccc(C(N)=O)c1)c1ccccc1` (stereo partly drawn) [Example 6, 3-[({4-[(1R,5S)-3-(2-methyl-1H-benzimidazol-1-yl)-8-azabicyclo[3.2.1]oct-8-yl]-2-phenylbutyl}amino)sulfonyl]benzamide] gave an IC50 of 10 to 100 nM.

On to `Cc1nc2ccccc2n1[C@H]1C[C@H]2CC[C@@H](C1)N2CCC(CNS(=O)(=O)c1ccc2[nH]c(=O)oc2c1)c1ccccc1` (some centres unmarked) [Example 7], for which the IC50 fell in the range of 10 to 100 nM.

Compound `Cc1nc2ccccc2n1C1C[C@H]2CC[C@@H](C1)N2CCC(CNS(=O)(=O)c1ccc(C(N)=O)cc1)c1ccccc1` (stereo partly drawn) [Example 8, 4-[({4-[(1R,5S)-3-(2-methyl-1H-benzimidazol-1-yl)-8-azabicyclo[3.2.1]oct-8-yl]-2-phenylbutyl}amino)sulfonyl]benzamide] yielded a 50% inhibitory concentration (IC50) of 10 to 100 nM.

Regarding `COP(=O)(NCC(CCN1[C@@H]2CC[C@H]1C[C@@H](n1c(C)nc3ccccc31)C2)c1ccccc1)OC` (stereo partly drawn) [Example 9, dimethyl{4-[(1R,5S)-3-(2-methyl-1H-benzimidazol-1-yl)-8-azabicyclo[3.2.1]oct-8-yl]-2-phenylbutyl}amidophosphate], the IC50 lay within 10 to 100 nM.

For `Cc1nc2ccccc2n1[C@H]1C[C@H]2CC[C@@H](C1)N2CCC(CNS(=O)(=O)CC(F)(F)F)c1ccccc1` (stereo partly drawn) [Example 10, 2,2,2-trifluoro-N-{4-[(1R,5S)-3-(2-methyl-1H-benzimidazol-1-yl)-8-azabicyclo[3.2.1]oct-8-yl]-2-phenylbutyl}ethanesulfonamide], the half-maximal inhibitory concentration (IC50) was in the range of 10 to 100 nM.

Turning to `Cc1nc2ccncc2n1[C@H]1C[C@H]2CC[C@@H](C1)N2CCC(CNS(=O)(=O)c1ccccc1)c1ccccc1` (stereo partly drawn) [Example 11, N-{4-[(1R,5S)-3-(2-methyl-3H-imidazo[4,5-c]pyridin-3-yl)-8-azabicyclo[3.2.1]oct-8-yl]-2-phenylbutyl}benzenesulfonamide], the IC50 was 10 to 100 nM.

Regarding `Cc1nc2ccccc2n1[C@H]1C[C@H]2CC[C@@H](C1)N2CCC(CNS(=O)(=O)N1CCOCC1)c1ccccc1` (stereo partly drawn) [Example 12, N-{4-[(1R,5S)-3-(2-methyl-1H-benzimidazol-1-yl)-8-azabicyclo[3.2.1]oct-8-yl]-2-phenylbutyl}-4-mopholinesulfonamide], the IC50 fell in the range of 10 to 100 nM.

The compound `CC(=O)N1CCc2nc(C)n([C@H]3C[C@H]4CC[C@@H](C3)N4CCC(CNS(=O)(=O)c3ccccc3)c3ccccc3)c2C1` (stereo partly drawn) [Example 13, N-{4-[(1R,5S)-3-(5-acetyl-2-methyl-4,5,6,7-tetrahydro-3H-imidazo[4,5-c]pyridin-3-yl)-8-azabicyclo[3.2.1]oct-8-yl]-2-phenylbutyl}benzenesulfonamide] displayed an IC50 of less than 10 nM.

For the compound `Cc1nc2ccccc2n1[C@H]1C[C@H]2CC[C@@H](C1)N2CCC(CNS(=O)(=O)NC1CCC1)c1ccccc1` (stereo partly drawn) [Example 14, N-cyclobutyl-N′-{4-[(1R,5S)-3-(2-methyl-1H-benzimidazol-1-yl)-8-azabicyclo[3.2.1]oct-8-yl]-2-phenylbutyl}sulfamide], the half-inhibitory concentration (IC50) lay within 10 to 100 nM.

On to `Cc1nc2ccccc2n1[C@H]1C[C@H]2CC[C@@H](C1)N2CCC(CNS(=O)(=O)NC1CCC(F)(F)CC1)c1ccccc1` (stereo partly drawn) [Example 15, N-(4,4-difluorocyclohexyl)-N′-{4-[(1R,5S)-3-(2-methyl-1H-benzimidazol-1-yl)-8-azabicyclo[3.2.1]oct-8-yl]-2-phenylbutyl}sulfamide], for which the IC50 lay in the range of 10 to 100 nM.

Regarding `Cc1nnc(C(C)C)n1[C@H]1C[C@H]2CC[C@@H](C1)N2CCC(CNC(=O)C1CCC(F)(F)CC1)c1ccccc1` (stereo partly drawn) [Example 16, 4,4-difluoro-N-(4-{(1R,5S)-3-[3-methyl-5-(1-methylethyl)-4H-1,2,4-triazol-4-yl]-8-azabicyclo[3.2.1]oct-8-yl}-2-phenylbutyl)cyclohexanecarboxamide], the IC50 fell in the range of 100 to 1000 nM.

For the compound `Cc1nnc(C(C)C)n1[C@H]1C[C@H]2CC[C@@H](C1)N2CCC(CNS(=O)(=O)c1ccccc1)c1ccccc1` (stereo partly drawn) [Example 17, N-(4-{(1R,5S)-3-[3-methyl-5-(1-methylethyl)-4H-1,2,4-triazol-4-yl]-8-azabicyclo[3.2.1]oct-8-yl}-2-phenylbutyl)benzenesulfonamide], the IC50 lay in the range of 100 to 1000 nM.

Turning to `Cc1nnc(C(C)C)n1[C@H]1C[C@H]2CC[C@@H](C1)N2CCC(CNC(=O)C1CC(F)(F)C1)c1ccccc1` (stereo partly drawn) [Example 18, 3,3-difluoro-N-(4-{(1R,5S)-3-[3-methyl-5-(1-methylethyl)-4H-1,2,4-triazol-4-yl]-8-azabicyclo[3.2.1]oct-8-yl}-2-phenylbutyl)cyclobutanecarboxamide], the concentration for half-maximal inhibition (IC50) was in the range of 100 to 1000 nM.

Compound `Cc1nc2ccccc2n1[C@H]1C[C@H]2CC[C@@H](C1)N2CCC(C)(CNS(=O)(=O)c1ccccc1)c1ccccc1` (stereo partly drawn) [Example 19, N-{2-methyl-4-[(1R,5S)-3-(2-methyl-1H-benzimidazol-1-yl)-8-azabicyclo[3.2.1]oct-8-yl]-2-phenylbutyl}benzenesulfonamide] came in with a concentration for half-maximal inhibition (IC50) of 100 to 1000 nM.

With `Cc1nc2ccccc2n1[C@H]1C[C@H]2CC[C@@H](C1)N2CCC(C)(CN(C)S(=O)(=O)c1ccccc1)c1ccccc1` (stereo partly drawn) [Example 20, N-methyl-N-{2-methyl-4-[(1R,5S)-3-(2-methyl-1H-benzimidazol-1-yl)-8-azabicyclo[3.2.1]oct-8-yl]-2-phenylbutyl}benzenesulfonamide], the IC50 is less than 10 nM.

For the origin of these results see patent publication US8592395B2, “Therapeutic compounds” (GlaxoSmithKline LLC, priority 2009, dated 2013).
